In data set [1] the target is T1, HCMV NO protease (Human cytomegalovirus, UniProt P16753).
T1 construct: HCMV NO protease
Put plainly: HCMV NO Protease Assay (fluorogenic substrate cleavage). The format is biochemical. The following applies: HCMV NO protease 100 nM, substrate 5 μM, pH 8, 2.5 h at 30°. The protocol: This particular assay determines the ability of a test compound to inhibit the activity (IC50) of HCMV protease. More specifically, in the assay described herein, the inhibitory activity of the test compound is evaluated on the basis of its ability to interfere with the HCMV NO protease cleavage of a fluorogenic peptide substrate which in turn is based on the maturation cleavage site of the enzyme.
1. HCMV NO Protease Assay
Material & Methods: Fluorescence measurements were recorded on a Perkin-Elmer LS-50B spectrofluorimeter equipped with a plate reader accessory. UV measurements were recorded on a Thermomax® microplate reader from Molecular Devices Corporation, Menlo Park, Calif., USA.
HCMV NO protease was assayed with an internally quenched fluorogenic substrate based on the maturation cleavage site (Abz-[…](3-NO2)R--OH, kcat /KM =260 M^-1 s^-1). The fluorescence increase upon cleavage of the Ala-Ser amide bond was monitored using excitation λ=312 nm (slit 2.5 nm) and emission λ=415 nm (slit 5 nm). A protocol adaptable to a 96-well plate format was designed for the determination of IC50 values of inhibitors.
After this period, enzymatic hydrolysis of the fluorogenic substrate in the absence of inhibitor led to about a 30% conversion. Quenching was not required before fluorescence measurement since the total scanning time by the plate reader accessory was brief relative to the duration of the reaction. The aqueous incubation buffer contained 50 mM tris(hydroxymethyl)aminomethane.HCl pH 8, 0.5M Na2 SO4, 50 mM NaCl, 0.1 mM EDTA, 1 mM tris(2-carboxyethyl)phosphine.HCl, 3% v/v DMSO and 0.05% w/v casein. The final concentrations of HCMV NO protease (expressed in terms of total monomer concentration) and substrate were 100 nM and 5 μM respectively. IC50 values were obtained through fitting of the inhibition curve to a competitive inhibition model using SAS NLIN procedure. The mode of inhibition was determined by measurements of the initial rates (in cuvettes) at various substrate concentrations in the buffer as described above. The IC50 values listed in the following tables were obtained according to this assay.

In data set [2] the test system is HCMV (strain AD169, ATCC VR-538). Put plainly: Plaque Reduction Assay (PRA) in HCMV-infected Hs-68 cells. The format is cell-based, human cytomegalovirus (HCMV). As to the method:
B. Plaque Reduction Assay (PRA):
Hs-68 cells (ATCC # CRL 1635) were seeded in 12-well plates at 83,000 cells/well in 1 mL of DMEM medium (Gibco Canada Inc.) supplemented with 10% fetal bovine serum (FBS, Gibco Canada Inc.). The plates were incubated for 3 days at 37° to allow the cells to reach 80-90% confluency prior to the assay.
The medium was removed from the cells by aspiration. The cells were then infected with approximately 50 PFU of HCMV (strain AD169, ATCC VR-538) in DMEM medium supplemented with 5% inactivated FBS (assay medium). (DMEM medium is commercially available and has been described by R. Dulbecco et al., Virology 1959, 8, 396.) The virus was allowed to adsorb to cells for 2 h at 37°. Following viral adsorption, the medium was removed from the wells by aspiration. The cells were then incubated with or without 1 mL of appropriate concentrations of test reagent in assay medium. Occasionally, test compounds were added 24 h post-infection. After 4 days of incubation at 37°, the medium was exchanged with fresh medium containing test compound and 4 days later the cells were fixed with 1% aqueous formaldehyde and stained with a 2% violet solution in 20% ethanol in water. Microscopic plaques were counted using a stereomicroscope. Drug effects were calculated as a percent reduction in the number of plaques in the presence of each drug concentration compared to the number observed in the absence of drug. Ganciclovir was used as a positive control in all experiments.
On the technique in general: Plaque reduction counts the foci of infection that form in a cell layer.

Data set [3] in a line: Cytotoxicity, tetrazolium salt (MTT) metabolic assay. The format is cell-based. The following applies: cytotoxic effects, read-out: TC50 (the source's name). The protocol: Cytotoxic effects noted as TC50 in the following tables were determined according to the tetrazolium salt (MTT) metabolic assay, F. Denizot and F. Lang, J. Immun. Meth., 1986, 89, 271.
[4] abbreviates: Human betaherpesvirus 5, AD169, Hs68, 192 h.
[5] abbreviates: Human betaherpesvirus 5, Hs68, 192 h, plaque reduction, HCMV strain AD169, Hs-68 cells, 8 days, read-out: EC50.

This passage reports IC50, EC50 and CC50 results from patent US6211170A, “Azetidinone derivatives for the treatment of HCMV infections” (Boehringer Ingelheim (Canada) Ltd., priority 1998, dated 2001).

The IC50 is the concentration that inhibits the measured activity by half. A low value points to higher potency. As a reminder, the EC50 is the concentration needed to bring the measured effect to its halfway point.

Molecules are shown by their SMILES. Read-outs that look alike come from different tables or passages of the source.

T1 sequence (P16753 1-256): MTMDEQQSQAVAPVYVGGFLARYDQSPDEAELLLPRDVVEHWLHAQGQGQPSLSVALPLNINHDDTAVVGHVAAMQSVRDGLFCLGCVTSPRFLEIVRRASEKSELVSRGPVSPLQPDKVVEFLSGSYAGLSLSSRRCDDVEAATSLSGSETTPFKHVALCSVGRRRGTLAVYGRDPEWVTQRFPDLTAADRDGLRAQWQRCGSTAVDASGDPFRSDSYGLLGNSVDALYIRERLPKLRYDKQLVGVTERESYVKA

Consider `CC[C@@H](NC(=O)N1C(=O)C[C@@H]1COC(=O)Nc1ccccc1)c1ccccc1` [Entry 131], for which half-maximal inhibition in data set [1] (IC50) was put at 0.4 µM. This molecule yielded an EC50 in data set [2] (setting [4]) of 20 µM. In data set [3], the CC50 is > 32 µM.

`COC(=O)c1ccc(CN(C)C(=O)N2C(=O)C[C@@H]2CSc2nccc(C)n2)cc1` [Entry 307] yielded an IC50 in data set [1] of 3.5 µM. In data set [2] (setting [5]), the concentration giving a half-maximal response (EC50) stood at 105 µM. The CC50 in data set [3] was > 250 µM.

For the molecule `CC[C@@H](NC(=O)N1C(=O)C[C@@H]1CSc1nccn1C)c1ccccc1` [Entry 140], in data set [1], the 50% inhibitory concentration (IC50) is 0.7 µM. The EC50 in data set [2] (setting [4]) was > 268 µM. The CC50 in data set [3] was > 268 µM.

Turning to `CN(Cc1ccc(C(F)(F)F)cc1)C(=O)N1C(=O)C[C@@H]1CSc1nccn1C` [Entry 314], the IC50 in data set [1] was found to be 5.5 µM. Also, in data set [2] (setting [5]), the EC50 was > 250 µM. Besides, the CC50 in data set [3] is > 250 µM.

As to `CC[C@@H](NC(=O)N1C(=O)[C@@H](C)[C@@H]1COc1ccccc1)c1ccccc1` [Entry 102], the IC50 in data set [1] turned out to be 2.7 µM. Besides, the EC50 in data set [2] (setting [5]) was > 250 µM. Besides, in data set [3], the CC50 was > 250 µM.

Regarding `COC(=O)c1ccc(CN(C)C(=O)N2C(=O)C[C@@H]2CSc2ncccn2)cc1` [Entry 302], the IC50 in data set [1] was 3.9 µM. Besides, in data set [2] (setting [5]), the EC50 worked out at 170 µM. Besides, in data set [3], the CC50 is > 250 µM.

In turn, `CC[C@@H](NC(=O)N1C(=O)C[C@@H]1CSc1ccccc1)c1ccccc1` [Entry 129] displayed a 50% inhibitory concentration (IC50) in data set [1] of 2.5 µM. Also, in data set [2] (setting [5]), the EC50 is > 250 µM. The CC50 in data set [3] is > 250 µM.

`CN(Cc1ccc(C(F)(F)F)cc1)C(=O)N1C(=O)C[C@@H]1CSc1nc2ncccc2s1` [Entry 316]: the IC50 in data set [1] stood at 1.6 µM. For the same molecule, in data set [2] (setting [5]), the EC50 was determined as 14 µM. Besides, the CC50 in data set [3] was > 18 µM.
